Results taken from ChEMBL document CHEMBL1127742, “Compass: predicting biological activities from molecular surface properties. Performance comparisons on a steroid benchmark” (J Med Chem, 1994).

Target: T1, Sex hormone-binding globulin (Homo sapiens) (UniProt P04278)
T1 sequence (whole entry): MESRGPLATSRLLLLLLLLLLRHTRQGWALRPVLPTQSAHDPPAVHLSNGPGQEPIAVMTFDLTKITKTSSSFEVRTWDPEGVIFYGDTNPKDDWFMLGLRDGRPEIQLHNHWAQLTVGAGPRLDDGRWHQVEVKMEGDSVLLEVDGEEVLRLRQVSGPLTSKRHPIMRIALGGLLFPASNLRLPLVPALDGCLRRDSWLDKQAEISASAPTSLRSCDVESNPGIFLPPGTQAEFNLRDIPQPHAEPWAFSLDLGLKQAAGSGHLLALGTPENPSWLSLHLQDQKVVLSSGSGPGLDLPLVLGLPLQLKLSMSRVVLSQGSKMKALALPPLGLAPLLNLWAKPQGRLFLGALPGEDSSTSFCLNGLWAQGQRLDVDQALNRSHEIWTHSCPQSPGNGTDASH
Description: Binding affinity against transport protein testosterone binding globulin.

Compound	Log 1/K
C[C@]12CC[C@@H](O)C[C@H]1CC[C@@H]1[C@@H]2CC[C@]2(C)C(=O)CC[C@@H]12	6.15
CC(=O)[C@@]1(O)CC[C@H]2[C@@H]3CC=C4C[C@@H](O)CC[C@]4(C)[C@H]3CC[C@@]21C	6.36
CC(=O)[C@H]1CC[C@H]2[C@@H]3CCC4=CC(=O)CC[C@]4(C)[C@H]3CC[C@]12C	6.94
C[C@]12CC[C@H](O)CC1=CCC1C2CC[C@]2(C)C(=O)CCC12 (stereo partly drawn)	7.82
C[C@]12CC[C@H](O)C[C@@H]1CC[C@@H]1[C@@H]2CC[C@]2(C)[C@@H](O)CC[C@@H]12	9.11
C[C@]12CC[C@@H](O)C[C@@H]1CC[C@@H]1[C@@H]2CC[C@]2(C)C(=O)CC[C@@H]12	7.15
CC(=O)[C@H]1CC[C@H]2[C@@H]3CC=C4C[C@@H](O)CC[C@]4(C)[C@H]3CC[C@]12C	7.15
C[C@]12CCC(=O)C=C1CC[C@@H]1[C@@H]2C(=O)C[C@@]2(C)[C@H]1CC[C@]2(O)C(=O)CO	6.43
C[C@]12CC[C@H]3[C@@H](CCC4=CC(=O)CC[C@@]43C)[C@@H]1CC[C@@H]2O	9.2
C[C@]12C[C@H](O)[C@H]3[C@@H](CCC4=CC(=O)CC[C@@]43C)[C@@H]1CC[C@@H]2C(=O)CO	6.34
C[C@]12CC[C@H]3[C@@H](CCC4=CC(=O)CC[C@@]43C)[C@@H]1CC[C@@H]2C(=O)CO	7.38
C[C@]12CC[C@@H]3c4ccc(O)cc4CC[C@H]3[C@@H]1C[C@@H](O)[C@@H]2O	6.63
CC(=O)[C@@]1(O)CC[C@H]2[C@@H]3CCC4=CC(=O)CC[C@]4(C)[C@H]3CC[C@@]21C	7
C[C@]12CCC(=O)C=C1CC[C@@H]1[C@@H]2CC[C@@]2(C)[C@H]1CC[C@]2(O)C(=O)CO	7.2
C[C@]12CCC(=O)C=C1CC[C@@H]1[C@@H]2[C@@H](O)C[C@@]2(C)[C@H]1CC[C@]2(O)C(=O)CO	6.2
C[C@]12CCC(=O)C=C1CCC1C3CC[C@H](C(=O)CO)[C@@]34C[C@H](OC4O)C12 (stereo partly drawn)	5.32
C[C@]12CCC(=O)C=C1CC[C@@H]1[C@@H]2CC[C@]2(C)C(=O)CC[C@@H]12	7.46
C[C@]12CCC(=O)C[C@@H]1CC[C@@H]1[C@@H]2CC[C@]2(C)[C@@H](O)CC[C@@H]12	9.74
